Each structure is given as a SMILES string.

Broadly, the melting point is the temperature of the solid-liquid transition.

As to `CCCc1cc(Br)c2oc(Cc3ccc(OC)cc3)c(C)c2c1O`, the melting point was in the range of 110 to 112 °C. In turn, `CCOC(=O)c1nc2n(c(=O)c1O)CCN2CCO` displayed a melting point of 155 to 156 °C. As for `CCC(=O)OCC(=O)C1(OC(=S)CC)CCC2C3CC(C)C4=CC(=O)C=CC4(C)C3C(O)CC21C` (centres undefined), the figure is 117 to 119 °C; as for `O=C(O)c1cn(C2COC2)c2c(F)c(F)c(F)cc2c1=O`, 203 to 206 °C; as for `N#Cc1c(N2CCNCC2)c(F)cc2c(=O)c(C(=O)O)cn(C3CC3)c12`, above 300 °C. As for `Oc1nsc(OC2CCCCC2)n1`, the figure is 105 °C. In the case of `NC(=O)CCC(C(N)=O)c1ccc(F)cc1` (centres undefined) it was 154 to 157 °C; in that of `COc1cc(CO)ccc1OCc1sc(-c2ccccc2)nc1C`, 152 to 153 °C; in that of `NC(=O)c1c(N)nn(-c2ccccc2)c1N`, 182 to 183 °C. The molecule `CCc1cc(C(=O)O)ccc1C(N)C(=O)O` (centres undefined) gave a melting point of 189 to 193 °C. Turning to `CCN1CCN(Cc2ccc3c(c2)Cc2c(-c4cccs4)n[nH]c2-3)CC1`, the melting point turned out to be 170 °C. As for `CCOCCOC(=O)Nc1c(C#N)cnn1-c1ccc(Cl)c(Cl)c1Cl`, the figure is 122 to 124 °C; as for `CCCC(=O)c1cnc2c(C)cccc2c1Nc1ccc(OC)cc1C`, 114 to 115 °C. In turn, `Cc1cc(F)ccc1Nc1nc(N(C)c2ccccc2)c2cccc(OCCCN3CCOCC3)c2n1` yielded a melting point of 133 to 134 °C. In the case of `COC(=O)[C@H]1CC[C@H](N2CCN(c3ccc(C4CCN(C(=O)C(F)(F)F)CC4)cc3)C2=O)CC1` it was 183 to 185 °C.

Molecule `CCOC(=O)C(O)c1ccc(C2CCCCC2)cc1` (centres undefined) gave a melting point of 85 to 86 °C. In the case of `CCCCn1nc(CCC)nc1Cc1ccc(-c2ccccc2-c2nnn[nH]2)nc1` it was 164 to 166 °C; in that of `CC(=O)N1[C@@H](c2ccc(F)cc2)SC(C)(C)[C@@H]1C(=O)O`, 144 to 146 °C; in that of `O=C(CCCN1CCC(C(O)(c2ccccc2)c2ccccc2)CC1)c1ccc(N2CCCCC2)cc1`, 138 to 139 °C. In the case of `O=c1[nH]c2ccc3c(c2[nH]1)OC(CNCCCCc1ccccc1)CO3` (centres undefined) it was 224 to 226 °C; in that of `O=C(COc1ccc(Cl)cc1Cl)Nc1ccnn1-c1c(Cl)cc(C(F)(F)F)cc1Cl`, 167 to 180 °C; in that of `CCOC(=O)Cn1c2cccccc-2c(CC)c1=O`, 128 to 131 °C. As for `CC1(COC2(C(F)(F)F)CN(C3CC3)C(=O)Nc3ccc(Cl)cc32)CC1` (centres undefined), the figure is 166 to 167 °C; as for `CSc1ccc2c(SCc3ccc(N(C)C)cc3)ccnc2c1`, 168 to 170 °C; as for `COc1cc(N2CCC(N3CCNCC3)CC2)ccc1Nc1ncc2ccc(-c3ccccc3OC)n2n1`, 65 to 67 °C. Molecule `CC1(C)Cc2c(sc(N)c2C(N)=O)CO1` yielded a melting point of 212 to 214 °C. As for `Cc1sc(C(N)=O)c2c1-c1nn(CC(F)(F)F)cc1CC2`, the figure is 227 to 228 °C; as for `Cc1cc(C)cc(-c2cnn3c(-c4cccc(-c5nnn(Cc6cccnc6)n5)c4)ccnc23)c1`, 73 °C. As for `CCOC(=O)c1cccc(OCCCC2CCN(c3ccc(Cl)nn3)CC2)c1`, the figure is 105 °C; as for `CC(=O)OC1CCCc2cnc3cc(OCc4ccccc4)ccc3c21` (centres undefined), 70 to 72 °C. As for `CC(C)Oc1c(C(N)=O)sc2ccc(N)cc12`, the figure is 150 to 151 °C.

In turn, `Cn1nc2ccccc2c1C(=O)NCCN1CCC(c2ccc(F)cc2)CC1` registered a melting point of 105 to 107 °C.

In turn, `CCCCc1nc2sccc2[nH]1` showed a melting point of 160 °C. In turn, `Cc1cc(NC(=O)c2cnn(-c3ccc(C(F)(F)F)cc3)c2C)ccc1N1CCC(N2CCOCC2)CC1` came in with a melting point of 252 to 255 °C. As for `CC(C)(C)Sc1c(CC(C)(C)C(=O)O)n(Cc2ccc(Cl)cc2)c2ccc(-c3ccccc3)cc12`, the figure is 245 to 246 °C. Take `O=S(=O)(Nc1cc(Cl)ccc1Cl)c1cc(S(=O)(=O)Nc2cc(Cl)ccc2Cl)c2cc(O)ccc2c1`: the melting point was 214 to 216 °C. On to `CC(C)(C)NS(=O)(=O)c1cccc2c1CSC2`, for which the melting point is 128 to 132 °C. As for `C[C@@H](n1ncn(-c2ccc(F)cc2)c1=O)[C@@]1(c2ccc(F)cc2F)CO1`, the figure is 100 to 101 °C; as for `COC1=C(CCO)C(=O)C(OC)=C(CCCCCC2=C(OC)C(=O)C(CCO)=C(OC)C2=O)C1=O`, 97 to 99 °C; as for `COc1cc(OC(C)C)cc2c1-c1c(OC(C)C)cccc1C2=O`, 74 to 75 °C.

`COc1cc(C(=O)O)ccc1Cn1nnc2ccc(NC(=O)OC3CCCC3)cc21` came in with a melting point of 237 to 239 °C.

`Nc1ncnn1C(=S)NC1CCCCC1` had a melting point of 168 to 170 °C. In the case of `CCNC(=O)c1ccc2ncc(C3CCN(C)CC3)c-2[nH]1` it was 117 to 120 °C; in that of `CCN(CCNS(C)(=O)=O)c1ccc(NC(C)=O)c(C)c1`, 104 to 105 °C; in that of `O=C(c1cccs1)c1cnn2c(-c3cccc(-c4ccn(CC5CCC5)n4)c3)ccnc12`, 60 °C.

On to `CC1(C)OC(=O)N2CCN(C(=O)OCc3ccccc3)CC21` (centres undefined), for which the melting point was 86 to 88 °C. In the case of `CCCC(=O)Nc1ccc(OCc2nc3cc(F)ccc3s2)cc1` it was 201 to 202 °C; in that of `CCc1c(-c2ccc(OCc3ccccc3)cc2)c2ccc3c(N)ccc1n32`, 123 to 127 °C; in that of `CCOC(=O)C1(CC(C)=O)OC(=O)C(=O)C1C(C)=O` (centres undefined), 87 to 88 °C.

With `CC(=O)C12CCC(CC1)CC2(C)O` (centres undefined), the melting point lay within 43 to 44 °C. Molecule `Clc1cc2c(cc1Cn1c(Sc3ccccc3)nc(Br)c1Br)OCO2` displayed a melting point of 165 °C. In the case of `CCOCc1nc2c(N)nc3ccccc3c2n1CCCC(C)=O` it was 173 to 175 °C; in that of `CCOC(=O)c1cccc(-c2cccc3cc(CBr)sc23)c1`, 96 to 97 °C. As for `CCCc1nc2ccc(C(=O)NCc3ccc(N(C)C)cc3)cc2n1Cc1ccccc1Cl`, the figure is 155 to 156 °C; as for `O=C(OCc1ccccc1)[C@H](CCCCO)N1C(=O)c2ccccc2C1=O`, 106 to 108 °C. In the case of `CC(O)c1c(NC(=O)C(C)(C)C)cccc1C(F)(F)F` (centres undefined) it was 172 °C; in that of `CCS(=O)(=O)c1cccnc1S(=O)(=O)NC(C)(C)C`, 58 to 63 °C. In turn, `CCCSc1ncnc2c(N3CCCCC3)nc(Cl)nc12` displayed a melting point of 107 to 109 °C. In turn, `CSc1cc2c(cc1C(F)(F)F)N(C(=O)Nc1ccc(C(=O)Nc3ccncc3)cc1)CC2` showed a melting point of 158 to 160 °C.

In turn, `CCOC(=O)C1=C(COCC#CC(=O)O)NC(C)=C(C(=O)OC)C1c1cccc(Cl)c1Cl` (centres undefined) returned a melting point of 100 °C.

For the molecule `CCCC(=O)c1cc2nc(CO)n(C)c2cc1C`, the melting point was 142 °C. As for `COc1ccc2c(c1)Sc1cc([N+](=O)[O-])ccc1N2C(C)=O`, the figure is 156 to 157 °C; as for `COc1ccc([N+](=O)[O-])c2[nH]ccc(=O)c12`, 195 to 200 °C; as for `CN(C)c1c(S(=O)C(F)(F)F)c(C#N)nn1-c1c(Cl)cc(C(F)(F)F)cc1Cl` (centres undefined), 154 to 161 °C.

These data come from a melting point compilation (Tetko et al.; mined from patent text by program, amines drawn as free bases though some values may be those of a salt).
